ChEMBL document CHEMBL1146527, “The guineamides, novel cyclic depsipeptides from a Papua New Guinea collection of the marine cyanobacterium Lyngbya majuscula” (J Nat Prod, 2003)
Activity calls are given as the source filed them. The rule behind the calls is not given here.

Columns and labels:
[1] = test system: N2a; test: Cytotoxicity against mouse Neuro2a cells at 10 ug/mL; format: functional, cell-based
[2] = Cytotoxicity against mouse Neuro2a cells; format: functional, cell-based; conditions: N2a

For `CC[C@H]1NC(=O)c2csc(n2)[C@H](C)NC(=O)[C@H](Cc2ccccc2)N(C)C(=O)[C@H](C(C)C)N(C)C(=O)[C@H](C)OC(=O)[C@H]1C`, the Activity [1] was “inactive”.

Compound `CC1NC(=O)c2csc(n2)[C@H](C)NC(=O)[C@H](Cc2ccccc2)N(C)C(=O)[C@H](C(C)C)N(C)C(=O)[C@H](C(C)C)OC(=O)C1C` (stereo partly drawn) [GUINEAMIDE B] has an IC50 [2] of 15 µM.

With `C#CCCCC1NC(=O)[C@H](C)N(C)C(=O)[C@H](C(C)C)NC(=O)[C@H](Cc2ccc(OC)cc2)N(C)C(=O)C(C(C)CC)OC(=O)C1C` (stereo partly drawn) [GUINEAMIDE C] the IC50 [2] was 16 µM.
